From BindingDB's records for doi:10.1016/j.bmcl.2009.11.072 (Roche Palo Alto, 2010)

test: Antagonist activity at human recombinant CCR5 by cell-cell fusion assay

Compound	IC50 [nM]
Cc1ncnc(C)c1C(=O)N1C[C@H]2CN(CCC3(c4ccccc4)CN(C(=O)C(C)(C)C)C3)C[C@H]2C1 [1-(3-(2-((3aR,6aS)-5-(4,6-dimethylpyrimidine-5-carbonyl)hexahydropyrrolo[3,4-c]pyrrol-2(1H)-yl)ethyl)-3-phenylazetidin-1-yl)-2,2-dimethylpropan-1-one]	186
Cc1ncnc(C)c1C(=O)N1C[C@H]2CN(CCC3(c4ccccc4)CN(C(=O)C(C)(C)CO)C3)C[C@H]2C1 [1-(3-(2-((3aR,6aS)-5-(4,6-dimethylpyrimidine-5-carbonyl)hexahydropyrrolo[3,4-c]pyrrol-2(1H)-yl)ethyl)-3-phenylazetidin-1-yl)-3-hydroxy-2,2-dimethylpropan-1-one]	310
Cc1ncnc(C)c1C(=O)N1C[C@H]2CN(CCC3(c4ccccc4)CCN(C(=O)C(C)(C)C)C3)C[C@H]2C1 (stereo partly drawn) [1-(3-(2-((3aR,6aS)-5-(4,6-dimethylpyrimidine-5-carbonyl)hexahydropyrrolo[3,4-c]pyrrol-2(1H)-yl)ethyl)-3-phenylpyrrolidin-1-yl)-2,2-dimethylpropan-1-one]	1940
Cc1ncnc(C)c1C(=O)N1C[C@H]2CN(CCC3(c4cccc(F)c4)CCN(C(=O)CC(C)(C)C)CC3)C[C@H]2C1 [1-(4-(2-((3aR,6aS)-5-(4,6-dimethylpyrimidine-5-carbonyl)hexahydropyrrolo[3,4-c]pyrrol-2(1H)-yl)ethyl)-4-(3-fluorophenyl)piperidin-1-yl)-3,3-dimethylbutan-1-one]	339
CC(=O)N1CCC(CCN2C[C@@H]3CN(C(=O)c4c(C)ncnc4C)C[C@@H]3C2)(c2cccc(F)c2)CC1 [1-(4-(2-((3aR,6aS)-5-(4,6-dimethylpyrimidine-5-carbonyl)hexahydropyrrolo[3,4-c]pyrrol-2(1H)-yl)ethyl)-4-(3-fluorophenyl)piperidin-1-yl)ethanone]	> 2500
Cc1ncnc(C)c1C(=O)N1C[C@H]2CN(CCC3(c4ccccc4)CN(C(=O)CC4CCCC4)C3)C[C@H]2C1 [2-cyclopentyl-1-(3-(2-((3aR,6aS)-5-(4,6-dimethylpyrimidine-5-carbonyl)hexahydropyrrolo[3,4-c]pyrrol-2(1H)-yl)ethyl)-3-phenylazetidin-1-yl)ethanone]	136
Cc1cc(C#N)nc(C)c1C(=O)N1C[C@H]2CN(CCC3(c4ccccc4)CN(C(=O)C4CC(F)(F)C4)C3)C[C@H]2C1 [5-((3aR,6aS)-5-(2-(1-(3,3-difluorocyclobutanecarbonyl)-3-phenylazetidin-3-yl)ethyl)octahydropyrrolo[3,4-c]pyrrole-2-carbonyl)-4,6-dimethylpicolinonitrile]	1
Cc1cc(C#N)nc(C)c1C(=O)N1C[C@H]2CN(CCC3(c4ccccc4)CCN(C(=O)C4CCCC4)C3)C[C@H]2C1 (stereo partly drawn) [5-((3aR,6aS)-5-(2-(1-(cyclopentanecarbonyl)-3-phenylpyrrolidin-3-yl)ethyl)octahydropyrrolo[3,4-c]pyrrole-2-carbonyl)-4,6-dimethylpicolinonitrile]	85
Cc1ncnc(C)c1C(=O)N1C[C@H]2CN(CCC3(c4ccccc4)CN(C(=O)C4CCOC4)C3)C[C@H]2C1 (stereo partly drawn) [(4,6-dimethylpyrimidin-5-yl)((3aR,6aS)-5-(2-(3-phenyl-1-(tetrahydrofuran-3-carbonyl)azetidin-3-yl)ethyl)hexahydropyrrolo[3,4-c]pyrrol-2(1H)-yl)methanone]	559
Cc1cc(C(F)(F)F)nc(C)c1C(=O)N1C[C@H]2CN(CCC3(c4ccccc4)CN(C(=O)C4CC(F)(F)C4)C3)C[C@H]2C1 [((3aR,6aS)-5-(2-(1-(3,3-difluorocyclobutanecarbonyl)-3-phenylazetidin-3-yl)ethyl)hexahydropyrrolo[3,4-c]pyrrol-2(1H)-yl)(2,4-dimethyl-6-(trifluoromethyl)pyridin-3-yl)methanone]	3
Cc1nc(C(F)(F)F)nc(C)c1C(=O)N1C[C@H]2CN(CCC3(c4ccccc4)CN(C(=O)C4CC(F)(F)C4)C3)C[C@H]2C1 [((3aR,6aS)-5-(2-(1-(3,3-difluorocyclobutanecarbonyl)-3-phenylazetidin-3-yl)ethyl)hexahydropyrrolo[3,4-c]pyrrol-2(1H)-yl)(4,6-dimethyl-2-(trifluoromethyl)pyrimidin-5-yl)methanone]	168
Cc1ncnc(C)c1C(=O)N1C[C@H]2CN(CCC3(c4ccccc4)CN(C(=O)C4CC(F)(F)C4)C3)C[C@H]2C1 [((3aR,6aS)-5-(2-(1-(3,3-difluorocyclobutanecarbonyl)-3-phenylazetidin-3-yl)ethyl)hexahydropyrrolo[3,4-c]pyrrol-2(1H)-yl)(4,6-dimethylpyrimidin-5-yl)methanone]	93
Cc1ccnc(C)c1C(=O)N1C[C@H]2CN(CCC3(c4ccccc4)CN(C(=O)C4CCC(F)(F)CC4)C3)C[C@H]2C1 [((3aR,6aS)-5-(2-(1-(4,4-difluorocyclohexanecarbonyl)-3-phenylazetidin-3-yl)ethyl)hexahydropyrrolo[3,4-c]pyrrol-2(1H)-yl)(2,4-dimethylpyridin-3-yl)methanone]	15
Cc1ncnc(C)c1C(=O)N1C[C@H]2CN(CCC3(c4ccccc4)CN(C(=O)C4CCC(F)(F)CC4)C3)C[C@H]2C1 [((3aR,6aS)-5-(2-(1-(4,4-difluorocyclohexanecarbonyl)-3-phenylazetidin-3-yl)ethyl)hexahydropyrrolo[3,4-c]pyrrol-2(1H)-yl)(4,6-dimethylpyrimidin-5-yl)methanone]	10
Cc1ncnc(C)c1C(=O)N1C[C@H]2CN(CCC3(c4ccccc4)CN(S(=O)(=O)C4CCCC4)C3)C[C@H]2C1 [((3aR,6aS)-5-(2-(1-(cyclopentylsulfonyl)-3-phenylazetidin-3-yl)ethyl)hexahydropyrrolo[3,4-c]pyrrol-2(1H)-yl)(4,6-dimethylpyrimidin-5-yl)methanone]	458

Other lines, results leading:

IC50 [nM]	Compound
129	Cc1ncnc(C)c1C(=O)N1C[C@H]2CN(CCC3(c4cccc(F)c4)CCN(C(=O)C(C)(C)C)CC3)C[C@H]2C1 [1-(4-(2-((3aR,6aS)-5-(4,6-dimethylpyrimidine-5-carbonyl)hexahydropyrrolo[3,4-c]pyrrol-2(1H)-yl)ethyl)-4-(3-fluorophenyl)piperidin-1-yl)-2,2-dimethylpropan-1-one]
160	Cc1ncnc(C)c1C(=O)N1C[C@H]2CN(CCC3(c4cccc(F)c4)CCN(C(=O)C(C)C)CC3)C[C@H]2C1 [1-(4-(2-((3aR,6aS)-5-(4,6-dimethylpyrimidine-5-carbonyl)hexahydropyrrolo[3,4-c]pyrrol-2(1H)-yl)ethyl)-4-(3-fluorophenyl)piperidin-1-yl)-2-methylpropan-1-one]
1000	Cc1ncnc(C)c1C(=O)N1C[C@H]2CN(CCC3(c4cccc(F)c4)CCN(C(=O)C(C)(C)CO)CC3)C[C@H]2C1 [1-(4-(2-((3aR,6aS)-5-(4,6-dimethylpyrimidine-5-carbonyl)hexahydropyrrolo[3,4-c]pyrrol-2(1H)-yl)ethyl)-4-(3-fluorophenyl)piperidin-1-yl)-3-hydroxy-2,2-dimethylpropan-1-one]
360	Cc1cc(C#N)nc(C)c1C(=O)N1C[C@H]2CN(CCC3(c4ccccc4)CCN(C(=O)C(C)(C)C)C3)C[C@H]2C1 (stereo partly drawn) [4,6-dimethyl-5-((3aR,6aS)-5-(2-(3-phenyl-1-pivaloylpyrrolidin-3-yl)ethyl)octahydropyrrolo[3,4-c]pyrrole-2-carbonyl)picolinonitrile]
37	Cc1cc(C#N)nc(C)c1C(=O)N1C[C@H]2CN(CCC3(c4cccc(F)c4)CCN(C(=O)C(C)(C)C)CC3)C[C@H]2C1 [5-((3aR,6aS)-5-(2-(4-(3-fluorophenyl)-1-pivaloylpiperidin-4-yl)ethyl)octahydropyrrolo[3,4-c]pyrrole-2-carbonyl)-4,6-dimethylpicolinonitrile]
92	Cc1nc(C(F)(F)F)nc(C)c1C(=O)N1C[C@H]2CN(CCC3(c4ccccc4)CN(C(=O)C4CCOC4)C3)C[C@H]2C1 (stereo partly drawn) [(4,6-dimethyl-2-(trifluoromethyl)pyrimidin-5-yl)((3aR,6aS)-5-(2-(3-phenyl-1-(tetrahydrofuran-3-carbonyl)azetidin-3-yl)ethyl)hexahydropyrrolo[3,4-c]pyrrol-2(1H)-yl)methanone]
2	Cc1cc(C(F)(F)F)nc(C)c1C(=O)N1C[C@H]2CN(CCC3(c4ccccc4)CN(C(=O)C4CCC(F)(F)CC4)C3)C[C@H]2C1 [((3aR,6aS)-5-(2-(1-(4,4-difluorocyclohexanecarbonyl)-3-phenylazetidin-3-yl)ethyl)hexahydropyrrolo[3,4-c]pyrrol-2(1H)-yl)(2,4-dimethyl-6-(trifluoromethyl)pyridin-3-yl)methanone]
5	Cc1nc(C(F)(F)F)nc(C)c1C(=O)N1C[C@H]2CN(CCC3(c4ccccc4)CN(C(=O)C4CCC(F)(F)CC4)C3)C[C@H]2C1 [((3aR,6aS)-5-(2-(1-(4,4-difluorocyclohexanecarbonyl)-3-phenylazetidin-3-yl)ethyl)hexahydropyrrolo[3,4-c]pyrrol-2(1H)-yl)(4,6-dimethyl-2-(trifluoromethyl)pyrimidin-5-yl)methanone]
